Results on eight compounds are retold here after PubChem BioAssay AID1259407 (Chemical Carcinogenesis Research Information System (CCRIS), 2018).

Active and inactive are the calls of the source. How the calls were made is not given here.

The data set concerns CCRIS mutagenicity, Ames/micronucleus/aberration tests. Briefly: CCRIS mutagenicity studies.
Setting [1] is: Test System: AMES SALMONELLA TYPHIMURIUM, Strain/Indicator: TA98, Metabolic Activation: NONE, Method: PREINCUBATION
Where [2] appears, read: Test System: AMES SALMONELLA TYPHIMURIUM, Strain/Indicator: TA100, Metabolic Activation: NONE, Method: PREINCUBATION
[3] abbreviates: Test System: AMES SALMONELLA TYPHIMURIUM, Strain/Indicator: TA1535, Metabolic Activation: NONE, Method: PREINCUBATION
Where [4] appears, read: Test System: AMES SALMONELLA TYPHIMURIUM, Strain/Indicator: TA1537, Metabolic Activation: NONE, Method: PREINCUBATION
Setting [5] is: Test System: AMES SALMONELLA TYPHIMURIUM, Strain/Indicator: TA1535, Metabolic Activation: RAT, LIVER, S-9, AROCLOR 1254, Method: PREINCUBATION
The mark [6] stands for this setting: Test System: AMES SALMONELLA TYPHIMURIUM, Strain/Indicator: TA98, Metabolic Activation: NONE, Method: STANDARD PLATE.
[7] abbreviates: Test System: AMES SALMONELLA TYPHIMURIUM, Strain/Indicator: TA98, Metabolic Activation: RAT, LIVER, S-9, AROCLOR 1254, Method: STANDARD PLATE.
Where [8] appears, read: Test System: AMES SALMONELLA TYPHIMURIUM, Strain/Indicator: TA100, Metabolic Activation: NONE, Method: STANDARD PLATE.
[9] abbreviates: Test System: AMES SALMONELLA TYPHIMURIUM, Strain/Indicator: TA100, Metabolic Activation: RAT, LIVER, S-9, AROCLOR 1254, Method: STANDARD PLATE.
[10] abbreviates: Test System: AMES SALMONELLA TYPHIMURIUM, Strain/Indicator: TA1535, Metabolic Activation: NONE, Method: STANDARD PLATE.
Where [11] appears, read: Test System: AMES SALMONELLA TYPHIMURIUM, Strain/Indicator: TA1535, Metabolic Activation: RAT, LIVER, S-9, AROCLOR 1254, Method: STANDARD PLATE.

On to `CCCCCNCCCCC`, for which the mutagenic call runs as follows: (Test System: AMES SALMONELLA TYPHIMURIUM, Strain/Indicator: TA98, Metabolic Activation: HAMSTER, LIVER, S-9, AROCLOR 1254 (10%), Method: PREINCUBATION) “inactive; negative”; under setting [1], “inactive; negative”; (Test System: AMES SALMONELLA TYPHIMURIUM, Strain/Indicator: TA98, Metabolic Activation: RAT, LIVER, S-9, AROCLOR 1254 (10%), Method: PREINCUBATION) “inactive; negative”; (Test System: AMES SALMONELLA TYPHIMURIUM, Strain/Indicator: TA100, Metabolic Activation: HAMSTER, LIVER, S-9, AROCLOR 1254 (10%), Method: PREINCUBATION) “inactive; negative”; under setting [2], “inactive; negative”; (Test System: AMES SALMONELLA TYPHIMURIUM, Strain/Indicator: TA100, Metabolic Activation: RAT, LIVER, S-9, AROCLOR 1254 (10%), Method: PREINCUBATION) “inactive; negative”. The mutagenic call (Test System: AMES SALMONELLA TYPHIMURIUM, Strain/Indicator: TA1535, Metabolic Activation: HAMSTER, LIVER, S-9, AROCLOR 1254 (10%), Method: PREINCUBATION) is “inactive; negative”; the mutagenic call under setting [3] is “inactive; negative”; the mutagenic call (Test System: AMES SALMONELLA TYPHIMURIUM, Strain/Indicator: TA1535, Metabolic Activation: RAT, LIVER, S-9, AROCLOR 1254 (10%), Method: PREINCUBATION) was “inactive; negative”; the mutagenic call (Test System: AMES SALMONELLA TYPHIMURIUM, Strain/Indicator: TA1537, Metabolic Activation: HAMSTER, LIVER, S-9, AROCLOR 1254 (10%), Method: PREINCUBATION) was “inactive; negative”; the mutagenic call under setting [4] was “inactive; negative”; the mutagenic call (Test System: AMES SALMONELLA TYPHIMURIUM, Strain/Indicator: TA1537, Metabolic Activation: RAT, LIVER, S-9, AROCLOR 1254 (10%), Method: PREINCUBATION) is “inactive; negative”.
Turning to `Brc1c(Br)c(Br)c(Br)c(Br)c1Br`, the mutagenic call reads like this: (Test System: AMES SALMONELLA TYPHIMURIUM, Strain/Indicator: TA98, Metabolic Activation: HAMSTER, LIVER, S-9, AROCLOR 1254, Method: PREINCUBATION) “inactive; negative”; under setting [1], “inactive; negative”; (Test System: AMES SALMONELLA TYPHIMURIUM, Strain/Indicator: TA98, Metabolic Activation: RAT, LIVER, S-9, AROCLOR 1254, Method: PREINCUBATION) “inactive; negative”; (Test System: AMES SALMONELLA TYPHIMURIUM, Strain/Indicator: TA100, Metabolic Activation: HAMSTER, LIVER, S-9, AROCLOR 1254, Method: PREINCUBATION) “inactive; negative”; under setting [2], “inactive; negative”; (Test System: AMES SALMONELLA TYPHIMURIUM, Strain/Indicator: TA100, Metabolic Activation: RAT, LIVER, S-9, AROCLOR 1254, Method: PREINCUBATION) “inactive; negative”. Moreover, the mutagenic call reads like this: (Test System: AMES SALMONELLA TYPHIMURIUM, Strain/Indicator: TA1535, Metabolic Activation: HAMSTER, LIVER, S-9, AROCLOR 1254, Method: PREINCUBATION) “inactive; negative”; under setting [3], “inactive; negative”; under setting [5], “inactive; negative”; (Test System: AMES SALMONELLA TYPHIMURIUM, Strain/Indicator: TA1537, Metabolic Activation: HAMSTER, LIVER, S-9, AROCLOR 1254, Method: PREINCUBATION) “inactive; negative”; under setting [4], “inactive; negative”; (Test System: AMES SALMONELLA TYPHIMURIUM, Strain/Indicator: TA1537, Metabolic Activation: RAT, LIVER, S-9, AROCLOR 1254, Method: PREINCUBATION) “inactive; negative”.
Regarding `COc1ccc(S(=O)(=O)n2ncc(Cl)c(Cl)c2=O)cc1`, the mutagenic call is “inactive; negative” under setting [6]; “inactive; negative” under setting [7]; “inactive; negative” under setting [8]; “inactive; negative” under setting [9]; “inactive; negative” under setting [10]; “inactive; negative” under setting [11]. For the same compound, the mutagenic call is “inactive; negative” (Test System: AMES SALMONELLA TYPHIMURIUM, Strain/Indicator: TA1537, Metabolic Activation: NONE, Method: STANDARD PLATE) and “inactive; negative” (Test System: AMES SALMONELLA TYPHIMURIUM, Strain/Indicator: TA1537, Metabolic Activation: RAT, LIVER, S-9, AROCLOR 1254, Method: STANDARD PLATE).
Turning to `C=COC(N)=O`, the mutagenic call reads like this: (End Point: In vivo micronucleus, Test System: Peripheral blood reticulocytes, Species: Mouse, Strain/Sex: F1 (Big Blue x A/J) transgenic/Male and female, Route: Intraperitoneal) “active; positive”; (Test System: UDS MOUSE SPERMATIDS, Strain/Indicator: THY INCORP, Metabolic Activation: NONE) “active; positive”.
For the compound `c1ccc2nc3ccccc3cc2c1`, the mutagenic call was “inactive; negative” (Test System: AMES SALMONELLA TYPHIMURIUM, Strain/Indicator: TA97, Metabolic Activation: NONE, Method: STANDARD PLATE); “inactive; negative” (Test System: AMES SALMONELLA TYPHIMURIUM, Strain/Indicator: TA97, Metabolic Activation: RAT, LIVER, S-9, AROCLOR 1254, Method: STANDARD PLATE); “inactive; negative” under setting [6]; “inactive; negative” under setting [7]; “inactive; negative” under setting [8]; “inactive; negative” under setting [9]. Further, the mutagenic call under setting [3] is “inactive; negative”; the mutagenic call (Test System: AMES SALMONELLA TYPHIMURIUM, Strain/Indicator: TA1535, Metabolic Activation: RAT, LIVER, S-9, TETRACHLOROBIPHENYL, Method: PREINCUBATION) is “inactive; negative”; the mutagenic call under setting [4] is “inactive; negative”; the mutagenic call (Test System: AMES SALMONELLA TYPHIMURIUM, Strain/Indicator: TA1537, Metabolic Activation: RAT, LIVER, S-9, TETRACHLOROBIPHENYL, Method: PREINCUBATION) was “active; positive”; the mutagenic call (Test System: AMES SALMONELLA TYPHIMURIUM, Strain/Indicator: TA1538, Metabolic Activation: NONE, Method: PREINCUBATION) was “inactive; negative”; the mutagenic call (Test System: AMES SALMONELLA TYPHIMURIUM, Strain/Indicator: TA1538, Metabolic Activation: RAT, LIVER, S-9, TETRACHLOROBIPHENYL, Method: PREINCUBATION) was “inactive; negative”.
`O=C(O)C1OC1C(=O)O` (configuration not stated): the mutagenic call under setting [8] is “inactive; negative”; the mutagenic call under setting [9] is “inactive; negative”; the mutagenic call under setting [10] is “inactive; negative”; the mutagenic call under setting [11] is “inactive; negative”; the mutagenic call (Test System: UDS RAT HEPATOCYTES, Strain/Indicator: THY INCORP, Metabolic Activation: NONE) was “inactive; negative”.
As to `O=NN1CCOC(O)C1` (configuration not stated), the mutagenic call was “active; positive” under setting [2], “active; positive” under setting [3] and “active; positive” under setting [5].
On to `C[n+]1ccc(-c2cc[n+](C)cc2)cc1`, for which the mutagenic call reads like this: (End Point: IN VIVO MICRONUCLEUS, Test System: BONE MARROW POLYCHROMATIC ERYTHROCYTES, Species: RAT, Strain/Sex: SPRAGUE DAWLEY/MALE, Route: DERMAL) “active; positive; maximal response at 48 hr”; (Test System: AMES SALMONELLA TYPHIMURIUM, Strain/Indicator: TA102, Metabolic Activation: NONE, Method: STANDARD PLATE) “inactive; negative”; (Test System: AMES SALMONELLA TYPHIMURIUM, Strain/Indicator: TA2638, Metabolic Activation: NONE, Method: STANDARD PLATE) “inactive; negative”; (Test System: CHINESE HAMSTER G10, Strain/Indicator: G10 (GPT)/6-THIOGUANINE, Metabolic Activation: NONE) “inactive; negative”; (Test System: CHINESE HAMSTER G12, Strain/Indicator: G12 (GPT)/6-THIOGUANINE, Metabolic Activation: NONE) “inactive; negative”; (Test System: CHINESE HAMSTER V-79, Strain/Indicator: V-79 (HPRT)/6-THIOGUANINE, Metabolic Activation: NONE) “inactive; negative”. Further, the mutagenic call (Test System: E. COLI, Strain/Indicator: WP2 (PKM101), Metabolic Activation: NONE, Method: STANDARD PLATE) is “inactive; negative” and the mutagenic call (Test System: E. COLI, Strain/Indicator: WP2 UVRA (PKM101), Metabolic Activation: NONE, Method: STANDARD PLATE) is “inactive; negative”.
